Experiments:
[1] = Half-life in human plasma; type: ADME, cell-free
[2] = Half-life of the parent prodrug in plasma; type: ADME, cell-free; settings: human
[3] = Half-life of the parent prodrug in porcine esterase solution; type: ADME, Sus scrofa; settings: pig

| half-life [1] [min] | T1/2 [2] [min] | T1/2 [3] [min] | SMILES |
| --- | --- | --- | --- |
| 52 | – | – | COc1ccc(NC(=O)CC(C)(C)c2c(OC)cc(OC)cc2OC(C)=O)cc1 |
| – | 53.7 | 11.9 | COc1ccc(NC(=O)CC(C)(C)c2c(C)cc(C)cc2OC(C)=O)cc1 |
